Measurements taken from patent US20230150970A1, “AMINOPYRIMIDINE DERIVATIVES AND THEIR USE AS ARYL HYDROCARBON RECEPTOR MODULATORS” (DONG-A ST CO., LTD., priority 2020, published 2023).

Molecular target: T1, AhR (Homo sapiens, UniProt P35869)
T1 sequence (P35869 11-848): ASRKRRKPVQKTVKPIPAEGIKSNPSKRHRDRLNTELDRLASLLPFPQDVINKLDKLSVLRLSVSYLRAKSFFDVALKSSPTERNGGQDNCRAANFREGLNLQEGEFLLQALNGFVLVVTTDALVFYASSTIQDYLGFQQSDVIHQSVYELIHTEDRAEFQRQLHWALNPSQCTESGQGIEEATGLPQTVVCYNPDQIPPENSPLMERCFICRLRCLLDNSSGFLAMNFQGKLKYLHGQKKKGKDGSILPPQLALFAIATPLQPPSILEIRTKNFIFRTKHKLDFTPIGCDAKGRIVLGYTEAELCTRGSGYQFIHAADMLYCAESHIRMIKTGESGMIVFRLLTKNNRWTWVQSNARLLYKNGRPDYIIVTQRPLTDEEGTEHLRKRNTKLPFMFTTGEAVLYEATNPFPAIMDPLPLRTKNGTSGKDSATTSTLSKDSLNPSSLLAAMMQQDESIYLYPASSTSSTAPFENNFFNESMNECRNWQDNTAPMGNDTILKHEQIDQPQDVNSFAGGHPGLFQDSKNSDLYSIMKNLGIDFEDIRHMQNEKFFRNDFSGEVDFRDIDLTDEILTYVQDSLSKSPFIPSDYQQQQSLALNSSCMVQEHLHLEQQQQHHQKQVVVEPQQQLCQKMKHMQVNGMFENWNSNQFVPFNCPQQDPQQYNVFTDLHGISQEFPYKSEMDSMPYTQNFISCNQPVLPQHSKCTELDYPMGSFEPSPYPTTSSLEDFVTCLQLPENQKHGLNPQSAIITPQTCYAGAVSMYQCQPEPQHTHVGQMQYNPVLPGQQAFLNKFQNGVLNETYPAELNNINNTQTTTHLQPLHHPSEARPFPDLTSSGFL
Assay: In Vitro Assay 1: XRE-luciferase reporter assay, antagonism in human cell line (HepG2)
Conditions: Assay 1: AhR-Luc Human Antagonism (IC50, nM), unmarked values: kynurenine 200 μM, 6 hours
From the text: In Vitro XRE-Luciferase Reporter Assay (In Vitro Assay 1, 2, 3) AhR activation leads the induction of target gene expression such as CYP1A1 and CYPIB1 by AhR binding to AhR-responsive DNA elements also known as xenobiotics responsive elements (XREs). The assay for measuring AhR activity herein is the luciferase assay using cell lines transfected with luciferase reporter plasmid containing XREs at the upstream of the reporter gene. Cells transfected with XRE-luciferase reporter (XRE-Luc), plasmid drive luciferase activity reflecting activation and inhibition of AhR in the cells. […] Kynurenine (an endogenous AhR agonist), was used to stimulate cells to test antagonistic properties of the compounds. The half-maximal inhibitory concentration (IC50), or half-maximal effective concentration (EC50), value was calculated using nonlinear regression (four parameters), with Prism8.0 software (GraphPad).
In Vitro Assay 1: Antagonism in Human Cell Line
HepG2 (human hepatoma cell line) cell line with a XRE-luciferase reporter either transiently or stably (Invivogen) were plated in complete medium and incubated at 37° C. in a CO2 incubator. After 24 hours, cells were treated with kynurenine (50* or 200 μM) alone (negative control) or with test compounds for 6 hours. Luciferase activity was measured with a commercial kit such as the Promega Luciferase kit or Invivogen Luciferase kit. Relative luciferase activity (Firefly/Nano-Luc) was used to calculate IC50 values. […] (IC50 values are grouped as A, B, C and D, whereby A: IC50<0.01 μM; B: 0.01<IC50<0.1 μM; C: 0.1<IC50<1.0 μM; D: IC50>1.0 μM)

SMILES | IC50 [nM]
Nc1cc(-c2cc(N3CC[C@H](O)C3)nc(-c3cccnc3)n2)ccc1N1CCOCC1 [Example 298, (S)-1-(6-(3-amino-4-morpholinophenyl)-2-(pyridin-3-yl)pyrimidin-4-yl)pyrrolidin-3-ol] | 10 to 100
CC(=O)Nc1cc(-c2cc(N3CC[C@H](O)C3)nc(-c3cccnc3)n2)ccc1N1CCOCC1 [Example 299, (S)—N-(5-(6-(3-hydroxypyrrolidin-1-yl)-2-(pyridin-3-yl)pyrimidin-4-yl)-2-morpholinophenyl)acetamide] | > 1000
O[C@H]1CCN(c2cc(-c3ccc(F)nc3)nc(-c3cccnc3)n2)C1 [Example 300, (S)-1-(6-(6-fluoropyridin-3-yl)-2-(pyridin-3-yl)pyrimidin-4-yl)pyrrolidin-3-ol] | 100 to 1000
CN(C)CCNc1ccc(-c2cc(N3CC[C@H](O)C3)nc(-c3cccnc3)n2)cn1 [Example 301, (S)-1-(6-(6-((2-(dimethylamino)ethyl)amino)pyridin-3-yl)-2-(pyridin-3-yl)pyrimidin-4-yl)pyrrolidin-3-ol] | 100 to 1000
CC1CN(c2ccc(-c3cc(N4CC[C@H](O)C4)nc(-c4cccnc4)n3)cn2)CC(C)O1 (stereo partly drawn) [Example 302, (3S)-1-(6-(6-(2,6-dimethylmorpholino)pyridin-3-yl)-2-(pyridin-3-yl)pyrimidin-4-yl)pyrrolidin-3-ol] | > 1000
O=S(=O)(CCO)N1CCN(c2cc(-c3ccc(Cl)cc3O)nc(-c3cccnc3)n2)CC1 [Example 303, 5-chloro-2-(6-(4-((2-hydroxyethyl)sulfonyl)piperazin-1-yl)-2-(pyridin-3-yl)pyrimidin-4-yl)phenol] | < 10
Oc1cc(Cl)ccc1-c1cc(N2CC[C@H](O)C2)nc(-c2cccnc2O)n1 [Example 304, (S)-3-(4-(4-chloro-2-hydroxyphenyl)-6-(3-hydroxypyrrolidin-1-yl)pyrimidin-2-yl)pyridin-2-ol] | < 10
Nc1ccc(-c2cc(N3CC[C@H](O)C3)nc(-c3cccnc3)n2)cc1 [Example 305, (S)-1-(6-(4-aminophenyl)-2-(pyridin-3-yl)pyrimidin-4-yl)pyrrolidin-3-ol] | > 1000
C=CS(=O)(=O)N1CCN(c2cc(-c3ccc(Cl)cc3)nc(-c3cccnc3)n2)CC1 [Example 306, 4-(4-chlorophenyl)-2-(pyridin-3-yl)-6-(4-(vinylsulfonyl)piperazin-1-yl)pyrimidine] | 10 to 100
OCC1CCN(c2cc(-c3ccc(Cl)cc3Cl)nc(-c3cccnc3)n2)CC1 [Example 307, (1-(6-(2,4-dichlorophenyl)-2-(pyridin-3-yl)pyrimidin-4-yl)piperidin-4-yl)methanol] | 10 to 100
OC[C@@H]1CN(c2cc(-c3ccc(C(F)(F)F)cc3)nc(-c3cccnc3)n2)CCN1 [Example 308, (S)-(4-(2-(pyridin-3-yl)-6-(4-(trifluoromethyl)phenyl)pyrimidin-4-yl)piperazin-2-yl)methanol] | 100 to 1000
OC[C@H]1CN(c2cc(-c3ccc(C(F)(F)F)cc3)nc(-c3cccnc3)n2)CCN1 [Example 309, (R)-(4-(2-(pyridin-3-yl)-6-(4-(trifluoromethyl)phenyl)pyrimidin-4-yl)piperazin-2-yl)methanol] | 10 to 100
O=C(O)[C@@H]1CCN(c2cc(-c3ccc(C(F)(F)F)cc3)nc(-c3cccnc3)n2)C1 [Example 310, (R)-1-(2-(pyridin-3-yl)-6-(4-(trifluoromethyl)phenyl)pyrimidin-4-yl)pyrrolidine-3-carboxylic acid] | 100 to 1000
O=C(O)[C@@H]1CCN(c2cc(-c3ccc(Cl)cc3)nc(-c3cccnc3)n2)C1 [Example 311, (R)-1-(6-(4-chlorophenyl)-2-(pyridin-3-yl)pyrimidin-4-yl)pyrrolidine-3-carboxylic acid] | 100 to 1000
Cn1cc(-c2nc(-c3ccc(Cl)cc3)cc(N3CC[C@@H](C(=O)O)C3)n2)cn1 [Example 313, (R)-1-(6-(4-chlorophenyl)-2-(1-methyl-1H-pyrazol-4-yl)pyrimidin-4-yl)pyrrolidine-3-carboxylic acid] | > 1000
O[C@H]1CCN(c2cc(-c3ccc(N4CCOCC4)nc3)nc(-c3cccnc3)n2)C1 [Example 315, (S)-1-(6-(6-morpholinopyridin-3-yl)-2-(pyridin-3-yl)pyrimidin-4-yl)pyrrolidin-3-ol] | < 10
Oc1cc(Cl)ccc1-c1cc(N2CC[C@H](O)C2)nc(-c2cccnc2)n1 [Example 316, (S)-1-(6-(4-chloro-2-hydroxyphenyl)-2-(pyridin-3-yl)pyrimidin-4-yl)pyrrolidin-3-ol] | < 10

SMILES | IC50 [nM]
Oc1ncccc1-c1cc(N2CC[C@H](O)C2)nc(-c2cccnc2)n1 [Example 317, (S)-3-(6-(3-hydroxypyrrolidin-1-yl)-2-(pyridin-3-yl)pyrimidin-4-yl)pyridin-2-ol] | > 1000
OCC1CCN(c2cc(-c3ccc(F)nc3)nc(-c3cccnc3)n2)CC1 [Example 318, (1-(6-(6-fluoropyridin-3-yl)-2-(pyridin-3-yl)pyrimidin-4-yl)piperidin-4-yl)methanol] | 10 to 100
OC1CN(c2cc(-c3ccc(Cl)cc3)nc(-c3cccnc3)n2)C1 [Example 319, 1-(6-(4-chlorophenyl)-2-(pyridin-3-yl)pyrimidin-4-yl)azetidin-3-ol] | 10 to 100
OCC1CN(c2cc(-c3ccc(Cl)cc3)nc(-c3cccnc3)n2)C1 [Example 320, (1-(6-(4-chlorophenyl)-2-(pyridin-3-yl)pyrimidin-4-yl)azetidin-3-yl)methanol] | 10 to 100
Cn1cc(-c2nc(-c3ccc(Cl)cc3)cc(N3CCN(S(C)(=O)=O)CC3)n2)cn1 [Example 321, 4-(4-chlorophenyl)-2-(1-methyl-1H-pyrazol-4-yl)-6-(4-(methylsulfonyl)piperazin-1-yl)pyrimidine] | 100 to 1000
Oc1cccc(-c2nc(-c3ccc(Cl)cc3)cc(N3CC[C@H](O)C3)n2)c1 [Example 322, (S)-1-(6-(4-chlorophenyl)-2-(3-hydroxyphenyl)pyrimidin-4-yl)pyrrolidin-3-ol] | > 1000
O[C@H]1CCN(c2cc(-c3ccc(Cl)cc3)nc(-c3ccncc3)n2)C1 [Example 324, (S)-1-(6-(4-chlorophenyl)-2-(pyridin-4-yl)pyrimidin-4-yl)pyrrolidin-3-ol] | > 1000
CS(=O)(=O)N1CCN(c2cc(-c3ccc(Cl)cc3)nc(-c3cncc(F)c3)n2)CC1 [Example 325, 4-(4-chlorophenyl)-2-(5-fluoropyridin-3-yl)-6-(4-(methylsulfonyl)piperazin-1-yl)pyrimidine] | 10 to 100
CS(=O)(=O)C1CCN(c2cc(-c3ccc(Cl)cc3)nc(-c3cccnc3)n2)CC1 [Example 326, 4-(4-chlorophenyl)-6-(4-(methylsulfonyl)piperidin-1-yl)-2-(pyridin-3-yl)pyrimidine] | 10 to 100
O=S(=O)(C1CC1)N1CCN(c2cc(-c3ccc(Cl)cc3)nc(-c3cccnc3)n2)CC1 [Example 328, 4-(4-chlorophenyl)-6-(4-(cyclopropylsulfonyl)piperazin-1-yl)-2-(pyridin-3-yl)pyrimidine] | 10 to 100
O[C@H]1CCN(c2cc(-c3ccc(Cl)cc3)nc(-c3ccnnc3)n2)C1 [Example 329, (S)-1-(6-(4-chlorophenyl)-2-(pyridazin-4-yl)pyrimidin-4-yl)pyrrolidin-3-ol] | 100 to 1000
OC1CCCN(c2cc(-c3ccc(Cl)cc3)nc(-c3cccnc3)n2)CC1 (stereo not shown) [Example 330, 1-(6-(4-chlorophenyl)-2-(pyridin-3-yl)pyrimidin-4-yl)azepan-4-ol] | 10 to 100
CS(=O)(=O)N1CC2CC1CN2c1cc(-c2ccc(Cl)cc2)nc(-c2cccnc2)n1 (stereo not shown) [Example 331, 2-(6-(4-chlorophenyl)-2-(pyridin-3-yl)pyrimidin-4-yl)-5-(methylsulfonyl)-2,5-diazabicyclo[2.2.1]heptane] | < 10
Cn1nnc(-c2nc(-c3ccc(Cl)cc3)cc(N3CC[C@H](O)C3)n2)n1 [Example 332, (S)-1-(6-(4-chlorophenyl)-2-(2-methyl-2H-tetrazol-5-yl)pyrimidin-4-yl)pyrrolidin-3-ol] | > 1000
Cn1nnc(-c2nc(-c3ccc(C(F)(F)F)cc3)cc(N3CC[C@H](O)C3)n2)n1 [Example 333, (S)-1-(2-(2-methyl-2H-tetrazol-5-yl)-6-(4-(trifluoromethyl)phenyl)pyrimidin-4-yl)pyrrolidin-3-ol] | > 1000
Cn1nnc(-c2nc(-c3ccc(Cl)cc3)cc(N3CCN(S(C)(=O)=O)CC3)n2)n1 [Example 334, 4-(4-chlorophenyl)-2-(2-methyl-2H-tetrazol-5-yl)-6-(4-(methylsulfonyl)piperazin-1-yl)pyrimidine] | > 1000
O=S(=O)(CCF)N1CCN(c2cc(-c3ccc(Cl)cc3)nc(-c3cccnc3)n2)CC1 [Example 335, 4-(4-chlorophenyl)-6-(4-((2-fluoroethyl)sulfonyl)piperazin-1-yl)-2-(pyridin-3-yl)pyrimidine] | < 10
